Results from US20100022559A1, “BISOXIMES AS FUNGICIDES” (BAYER CROPSCIENCE AG, priority 2006, published 2010).

Assay: logP determination by HPLC on a reversed-phase column (C 18), EEC Directive 79/831 Annex V.A8
Format: physicochemical
Conditions: method marked [a] in Table 1
Experimental: The stated logP values were determined in accordance with EEC Directive 79/831 Annex V.A8 by HPLC (high performance liquid chromatography) on a reversed-phase column (C 18). Temperature: 43° C.
With `Cc1cccc(C(=NOCC2(CON=C(c3cccc(C)n3)C3CC3)CC(c3ccccc3Cl)=NO2)C2CC2)n1` (stereo not drawn) [compound 648] the logP was 4.46^[a]. With `Cc1cccc(C(=NOCC2(CON=C(c3cccc(C)n3)C3CC3)CC(c3ccc(Cl)cc3)=NO2)C2CC2)n1` (stereo not drawn) [compound 649] the logP was 4.53^[a]. With `Cc1cccc(C(=NOCC2(CON=C(c3cccc(C)n3)C3CC3)CC(c3ccccc3)=NO2)C2CC2)n1` (stereo not drawn) [compound 650] the logP was 3.80^[a]. With `CCC1=NOC(CON=C(c2cccc(C)n2)C2CC2)(CON=C(c2cccc(C)n2)C2CC2)C1` (stereo not drawn) [compound 652] the logP was 2.95^[a]. With `Cc1cccc(C(=NOCC2(CON=C(c3cccc(C)n3)C3CC3)CC(CC(C)C)=NO2)C2CC2)n1` (stereo not drawn) [compound 653] the logP was 3.99^[a]. In the case of `CCC(=NOCC1(CON=C(CC)c2cccc(C)n2)CC(c2ccccc2Cl)=NO1)c1cccc(C)n1` (stereo not drawn) [compound 654], the logP is reported as 5.69^[a]. In the case of `Cc1cccc(C(=NOCC2(CON=C(c3cccc(C)n3)C3CC3)CC(c3cccc(Cl)c3)=NO2)C2CC2)n1` (stereo not drawn) [compound 655], the logP is reported as 4.54^[a]. For `Cc1cccnc1C(=NOCCCON=C(c1ccccc1)c1ncccc1C)c1ccccc1` [compound 657], the logP was 4.17^[a]. For `Cc1cccnc1C(=NOCC(C)CON=C(c1ccccc1)c1ncccc1C)c1ccccc1` (stereo not drawn) [compound 658], the logP was 4.54^[a]. With `CC(=NOC/C=C/CON=C(C)c1ccc(C)c(C)n1)c1ccc(C)c(C)n1` [compound 684] the logP was 2.67^[a]. With `CCc1cc(-c2ccccc2)cc(C(C)=NOCC(C)CON=C(C)c2cc(-c3ccccc3)cc(CC)n2)n1` (stereo not drawn) [compound 692] the logP was 7.36^[a].

Same assay, conditions: method marked [b] in Table 1
With `CCCC(=NOCC1(CON=C(CCC)c2cccc(C)n2)CC(c2ccc(Cl)cc2)=NO1)c1cccc(C)n1` (stereo not drawn) [compound 622] the logP was 6.58^[b]. In the case of `CCCC(=NOCC1(CON=C(CCC)c2cccc(C)n2)CC(c2ccccc2Cl)=NO1)c1cccc(C)n1` (stereo not drawn) [compound 623], the logP is reported as 6.51^[b]. In the case of `CCCC(=NOCC1(CON=C(CCC)c2cccc(C)n2)CC(c2cccc(Cl)c2)=NO1)c1cccc(C)n1` (stereo not drawn) [compound 624], the logP is reported as 6.58^[b]. For `CCCC(=NOCC1(CON=C(CCC)c2cccc(C)n2)CC(C=C(C)C)=NO1)c1cccc(C)n1` (stereo not drawn) [compound 625], the logP was 5.97^[b]. With `CC1=NOC(CON=C(C)c2ccc(C)c(C)n2)(CON=C(C)c2ccc(C)c(C)n2)C1` (stereo not drawn) [compound 626] the logP was 2.07^[b]. With `CC(=NOCC1(CON=C(C)c2ccc(C)c(C)n2)CC(C(C)C)=NO1)c1ccc(C)c(C)n1` (stereo not drawn) [compound 627] the logP was 3.06^[b]. For `CCC1=NOC(CON=C(C)c2ccc(C)c(C)n2)(CON=C(C)c2ccc(C)c(C)n2)C1` (stereo not drawn) [compound 628], the logP was 2.51^[b]. For `CCCC1=NOC(CON=C(C)c2ccc(C)c(C)n2)(CON=C(C)c2ccc(C)c(C)n2)C1` (stereo not drawn) [compound 629], the logP was 3.11^[b]. With `CC(=NOCC1(CON=C(C)c2ccc(C)c(C)n2)CC(CC(C)C)=NO1)c1ccc(C)c(C)n1` (stereo not drawn) [compound 630] the logP was 3.70^[b]. With `CC(=NOCC1(CON=C(C)c2ccc(C)c(C)n2)CC(C(C)(C)C)=NO1)c1ccc(C)c(C)n1` (stereo not drawn) [compound 631] the logP was 3.65^[b]. With `CC(=NOCC1(CON=C(C)c2ccc(C)c(C)n2)CC(c2ccccc2)=NO1)c1ccc(C)c(C)n1` (stereo not drawn) [compound 632] the logP was 3.61^[b]. For `CC(=NOCC1(CON=C(C)c2ccc(C)c(C)n2)CC(c2ccc(Cl)cc2)=NO1)c1ccc(C)c(C)n1` (stereo not drawn) [compound 633], the logP was 4.51^[b]. With `C/C(=N\OCC1(CO/N=C(\C)c2ccc(C)c(C)n2)CC(c2ccccc2Cl)=NO1)c1ccc(C)c(C)n1` [compound 634] the logP was 4.3^[b]. In the case of `C/C(=N\OCC1(CO/N=C(\C)c2ccc(C)c(C)n2)CC(c2cccc(Cl)c2)=NO1)c1ccc(C)c(C)n1` [compound 635], the logP is reported as 4.51^[b]. With `CC(C)=CC1=NOC(CO/N=C(\C)c2ccc(C)c(C)n2)(CO/N=C(\C)c2ccc(C)c(C)n2)C1` [compound 636] the logP was 3.46^[b]. With `CC(=NOCC1(CON=C(C)c2cc(C)cc(C)n2)CC(C(C)C)=NO1)c1cc(C)cc(C)n1` (stereo not drawn) [compound 638] the logP was 2.18^[b]. With `CCCC1=NOC(CON=C(C)c2cc(C)cc(C)n2)(CON=C(C)c2cc(C)cc(C)n2)C1` (stereo not drawn) [compound 640] the logP was 2.20^[b]. For `CC(=NOCC1(CON=C(C)c2cc(C)cc(C)n2)CC(CC(C)C)=NO1)c1cc(C)cc(C)n1` (stereo not drawn) [compound 641], the logP was 2.66^[b]. With `CC(=NOCC1(CON=C(C)c2cc(C)cc(C)n2)CC(C(C)(C)C)=NO1)c1cc(C)cc(C)n1` (stereo not drawn) [compound 642] the logP was 2.62^[b]. In the case of `CC(=NOCC1(CON=C(C)c2cc(C)cc(C)n2)CC(c2ccccc2)=NO1)c1cc(C)cc(C)n1` (stereo not drawn) [compound 643], the logP is reported as 2.55^[b]. For `CC(=NOCC1(CON=C(C)c2cc(C)cc(C)n2)CC(c2ccc(Cl)cc2)=NO1)c1cc(C)cc(C)n1` (stereo not drawn) [compound 644], the logP was 3.28^[b]. With `CC(=NOCC1(CON=C(C)c2cc(C)cc(C)n2)CC(c2ccccc2Cl)=NO1)c1cc(C)cc(C)n1` (stereo not drawn) [compound 645] the logP was 3.19^[b]. In the case of `CC(=NOCC1(CON=C(C)c2cc(C)cc(C)n2)CC(c2cccc(Cl)c2)=NO1)c1cc(C)cc(C)n1` (stereo not drawn) [compound 646], the logP is reported as 3.28^[b]. In the case of `CC(C)=CC1=NOC(CON=C(C)c2cc(C)cc(C)n2)(CON=C(C)c2cc(C)cc(C)n2)C1` (stereo not drawn) [compound 647], the logP is reported as 2.48^[b]. With `C=C(CON=Cc1cccc(C)n1)CON=C(C)c1cccc(C)n1` [compound 663] the logP was 2.54^[b]. For `C(=NOCCON=Cc1ccccn1)c1ccccn1` [compound 665], the logP was 1.68^[b]. For `C(=NOCCCON=Cc1ccccn1)c1ccccn1` [compound 666], the logP was 1.97^[b]. In the case of `C=C(CON=Cc1cccc(C)n1)CON=Cc1cccc(C)n1` [compound 667], the logP is reported as 2.16^[b]. For `Cc1cccc(C=NOCC(C)CON=Cc2cccc(C)n2)n1` (stereo not drawn) [compound 668], the logP was 2.28^[b]. In the case of `Cc1cccc(C(=NOCC(C)CON=C(c2cccc(C)n2)c2cccs2)c2cccs2)n1` (stereo not drawn) [compound 673], the logP is reported as 4.49^[b]. In the case of `CC(=NOC(=O)N(C)C(=O)ON=C(C)c1ccc(C)c(C)n1)c1ccc(C)c(C)n1` [compound 674], the logP is reported as 2.79^[b]. With `CCC(CC)(C(=O)ON=C(C)c1ccc(C)c(C)n1)C(=O)ON=C(C)c1ccc(C)c(C)n1` [compound 675] the logP was 5.06^[b]. For `CC(=NOC(=O)N(C)C(=O)ON=C(C)c1cc(C)cc(C)n1)c1cc(C)cc(C)n1` [compound 676], the logP was 2.21^[b]. For `C=Cc1cccc(C(C)=NOCC(C)CON=C(C)c2cccc(C=C)n2)n1` (stereo not drawn) [compound 685], the logP was 6.6^[b]. With `CC(=NOCC(C)CON=C(C)c1ccc2cccc(C)c2n1)c1ccc2cccc(C)c2n1` (stereo not drawn) [compound 687] the logP was 7.36^[b]. With `Cc1cccc(C(N)=NOCC(C)CON=C(N)c2cccc(C)n2)n1` (stereo not drawn) [compound 689] the logP was 2.71^[b]. In the case of `C=C(CON=C(Cl)c1cccc(C)n1)CON=C(Cl)c1cccc(C)n1` [compound 696], the logP is reported as 4.01^[b]. In the case of `Cc1cc(C)nc(/C(N)=N/OCc2ccccc2CO/N=C(\N)c2nc(C)cc(C)n2)n1` [compound 700], the logP is reported as 2.23^[b]. With `Cc1cc(C)nc(/C(N)=N/OCc2cccc(CO/N=C(\N)c3nc(C)cc(C)n3)c2)n1` [compound 701] the logP was 2.13^[b]. With `Cc1cc(C)nc(/C(N)=N/OCc2ccc(CO/N=C(\N)c3nc(C)cc(C)n3)cc2)n1` [compound 702] the logP was 2.11^[b]. For `CC(=NOCc1ccccc1CON=C(C)c1cccc(C)n1)c1cccc(C)n1` [compound 703], the logP was 4.26^[b]. With `CC(=NOCc1cccc(CON=C(C)c2cccc(C)n2)c1)c1cccc(C)n1` [compound 704] the logP was 4.17^[b]. In the case of `CC(=NOCc1ccc(CON=C(C)c2cccc(C)n2)cc1)c1cccc(C)n1` [compound 705], the logP is reported as 4.27^[b]. For `Cc1nc(/C(N)=N/OCc2ccccc2CO/N=C(\N)c2nc(C)c3c(n2)CCCC3)nc2c1CCCC2` [compound 707], the logP was 3.25^[b]. With `COCc1nc(/C(N)=N/OCc2ccccc2CO/N=C(\N)c2nc(COC)c(C)c(COC)n2)nc(COC)c1C` [compound 708] the logP was 2.16^[b]. For `Cc1nc(/C(N)=N/OCc2ccccc2CO/N=C(\N)c2nc(C)c(Cl)c(C)n2)nc(C)c1Cl` [compound 709], the logP was 3.41^[b]. In the case of `Cc1cc(C)cc(/C(N)=N/OCc2ccccc2CO/N=C(\N)c2cc(C)cc(C)c2)c1` [compound 710], the logP is reported as 3.68^[b]. For `N/C(=N\OCc1ccccc1CO/N=C(\N)c1nc(C2CC2)cc(C2CC2)n1)c1nc(C2CC2)cc(C2CC2)n1` [compound 711], the logP was 3.85^[b]. With `Cc1nc(/C(N)=N/OCc2cccc(CO/N=C(\N)c3nc(C)c4c(n3)CCCC4)c2)nc2c1CCCC2` [compound 712] the logP was 3.09^[b]. In the case of `COCc1nc(/C(N)=N/OCc2cccc(CO/N=C(\N)c3nc(COC)c(C)c(COC)n3)c2)nc(COC)c1C` [compound 713], the logP is reported as 2.06^[b]. In the case of `N/C(=N\OCc1cccc(CO/N=C(\N)c2ncc(F)cc2F)c1)c1ncc(F)cc1F` [compound 714], the logP is reported as 2.96^[b]. For `Cc1nc(/C(N)=N/OCc2cccc(CO/N=C(\N)c3nc(C)c(Cl)c(C)n3)c2)nc(C)c1Cl` [compound 715], the logP was 3.29^[b]. In the case of `N/C(=N\OCc1cccc(CO/N=C(\N)c2nc(C3CC3)cc(C3CC3)n2)c1)c1nc(C2CC2)cc(C2CC2)n1` [compound 716], the logP is reported as 3.76^[b]. For `Cc1nc(/C(N)=N/OCc2ccc(CO/N=C(\N)c3nc(C)c4c(n3)CCCC4)cc2)nc2c1CCCC2` [compound 717], the logP was 3.09^[b]. With `N/C(=N\OCc1ccc(CO/N=C(\N)c2ncc(F)cc2F)cc1)c1ncc(F)cc1F` [compound 719] the logP was 2.96^[b]. With `N/C(=N\OCc1ccc(CO/N=C(\N)c2nc(C3CC3)cc(C3CC3)n2)cc1)c1nc(C2CC2)cc(C2CC2)n1` [compound 720] the logP was 3.76^[b]. For `Cc1nc(/C(N)=N/OC/C=C/CO/N=C(\N)c2nc(C)c3c(n2)CCCC3)nc2c1CCCC2` [compound 721], the logP was 2.51^[b]. With `N/C(=N\OC/C=C/CO/N=C(\N)c1nc(C2CC2)cc(C2CC2)n1)c1nc(C2CC2)cc(C2CC2)n1` [compound 722] the logP was 3.13^[b]. For `N/C(=N\OC/C=C/CO/N=C(\N)c1ncc(F)cc1F)c1ncc(F)cc1F` [compound 723], the logP was 2.42^[b]. For `Cc1cc(C)nc(/C(N)=N/OCc2ccccc2CO/N=C(\N)c2cc(C)cc(C)n2)c1` [compound 724], the logP was 3.72^[b].

Same assay, conditions: method marked [c] in Table 1
For `CC(=NOCC(C)CON=C(C)c1ccc2cccc(C)c2n1)c1ccc2cccc(C)c2n1` (stereo not drawn) [compound 687], the logP was 7.36^[c].
